According to PubChem BioAssay AID1919006 (Molecular Pharmacology Branch, DTP, NCI, 2023):

System: 885512-296-R-J2-PDC complex spheroid growth, % test/control
Test: Anticancer human tumor 885512-296-R-J2-PDC patient-derived breast carcinoma cell line growth inhibition [AhR]
Settings: for IC50: curve of first compound; for viability, T/C: stronger effect = lower value
Summary of the method: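 Agents were dosed in half-log steps down from roughly clinical Cmax, or from 10 microM where Cmax was unknown, alone and with AhR antagonists. Read-out: percent test/control growth of tumor spheroids containing HUVEC and MSC stromal cells.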

[1] = second compound 0.1 µM, first compound 0.0316 µM
[2] = second compound 0.1 µM, first compound 0.1 µM
[3] = second compound 0.1 µM, first compound 0.316 µM
[4] = second compound 0.1 µM, first compound 1 µM
[5] = second compound 0.1 µM, first compound 3.16 µM
[6] = second compound 0.1 µM, first compound 10 µM
[7] = second compound 0.316 µM, first compound 0.0316 µM
[8] = second compound 0.316 µM, first compound 0.1 µM
[9] = second compound 0.316 µM, first compound 0.316 µM
[10] = second compound 0.316 µM, first compound 1 µM
[11] = second compound 0.316 µM, first compound 3.16 µM
[12] = second compound 0.316 µM, first compound 10 µM
[13] = second compound 1 µM, first compound 0.0316 µM
[14] = second compound 1 µM, first compound 0.1 µM
[15] = second compound 1 µM, first compound 0.316 µM
[16] = second compound 1 µM, first compound 1 µM
[17] = second compound 1 µM, first compound 3.16 µM
[18] = second compound 1 µM, first compound 10 µM
[19] = second compound 3.16 µM, first compound 0.0316 µM
[20] = second compound 3.16 µM, first compound 0.1 µM
[21] = second compound 3.16 µM, first compound 0.316 µM
[22] = second compound 3.16 µM, first compound 1 µM
[23] = second compound 3.16 µM, first compound 3.16 µM
[24] = second compound 3.16 µM, first compound 10 µM
[25] = second compound 10 µM, first compound 0.0316 µM
[26] = second compound 10 µM, first compound 0.1 µM
[27] = second compound 10 µM, first compound 0.316 µM
[28] = second compound 10 µM, first compound 1 µM
[29] = second compound 10 µM, first compound 3.16 µM
[30] = second compound 10 µM, first compound 10 µM
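Also: spheroids exposed to compounds for seven days.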

Row | IC50 (second compound 0.1 µM) [µM] | IC50 (second compound 0.316 µM) [µM] | IC50 (second compound 1 µM) [µM] | IC50 (second compound 3.16 µM) [µM] | IC50 (second compound 10 µM) [µM] | SMILES | viability, T/C [1] [%] | viability, T/C [2] [%] | viability, T/C [3] [%] | viability, T/C [4] [%] | viability, T/C [5] [%] | viability, T/C [6] [%] | viability, T/C [7] [%] | viability, T/C [8] [%] | viability, T/C [9] [%] | viability, T/C [10] [%] | viability, T/C [11] [%] | viability, T/C [12] [%] | viability, T/C [13] [%] | viability, T/C [14] [%] | viability, T/C [15] [%] | also measured
1 | < 0.0316 | < 0.0316 | < 0.0316 | < 0.0316 | < 0.0316 | Nc1ccn(C2OC(CO)C(O)C2(F)F)c(=O)n1 (stereo not given) + Cc1ccccc1N=Nc1ccc(NC(=O)c2ccnn2C)c(C)c1 | 3.22 | 3.21 | 3.37 | 3.91 | 5.19 | 4.82 | 3.01 | 3.13 | 3.98 | 4.91 | 7.26 | 4.9 | 3.39 | 3.19 | 5.43 | viability, T/C [16]: 5.88%; viability, T/C [17]: 5.6%; viability, T/C [18]: 6.93%; viability, T/C [19]: 3.31%; viability, T/C [20]: 3.09%; viability, T/C [21]: 5.1%; viability, T/C [22]: 5.57%; viability, T/C [23]: 4.88%; viability, T/C [24]: 5.93%; viability, T/C [25]: 3.17%; viability, T/C [26]: 3.46%; viability, T/C [27]: 4.17%; viability, T/C [28]: 4.62%; viability, T/C [29]: 5.33%; viability, T/C [30]: 5.12%
2 | 0.871 | 1.16 | 1.09 | 0.773 | 0.0338 | O=C(C=Cc1cccc(S(=O)(=O)Nc2ccccc2)c1)NO + Cc1ccccc1N=Nc1ccc(NC(=O)c2ccnn2C)c(C)c1 | 84.5 | 82.9 | 67.6 | 45 | 27.8 | 7.04 | 86.4 | 85.8 | 80.8 | 47.8 | 30.6 | 7.44 | 88.2 | 85.5 | 68.9 | viability, T/C [16]: 51.4%; viability, T/C [17]: 29.8%; viability, T/C [18]: 7.53%; viability, T/C [19]: 73.8%; viability, T/C [20]: 73%; viability, T/C [21]: 67.5%; viability, T/C [22]: 40.6%; viability, T/C [23]: 28.2%; viability, T/C [24]: 6.85%; viability, T/C [25]: 51%; viability, T/C [26]: 46.8%; viability, T/C [27]: 41.9%; viability, T/C [28]: 32.5%; viability, T/C [29]: 27.6%; viability, T/C [30]: 7.31%
3 | 5.92 | 5.82 | 5.52 | 4.79 | 3.44 | O=C(c1cc(Cc2n[nH]c(=O)c3ccccc23)ccc1F)N1CCN(C(=O)C2CC2)CC1 + Cc1ccccc1N=Nc1ccc(NC(=O)c2ccnn2C)c(C)c1 | 118 | 135 | 147 | 117 | 83.7 | 22.6 | 138 | 145 | 138 | 130 | 80 | 23.4 | 121 | 133 | 132 | viability, T/C [16]: 109%; viability, T/C [17]: 80.4%; viability, T/C [18]: 18.7%; viability, T/C [19]: 110%; viability, T/C [20]: 103%; viability, T/C [21]: 111%; viability, T/C [22]: 101%; viability, T/C [23]: 66.6%; viability, T/C [24]: 20.8%; viability, T/C [25]: 67.1%; viability, T/C [26]: 59.5%; viability, T/C [27]: 66.4%; viability, T/C [28]: 70.8%; viability, T/C [29]: 52.6%; viability, T/C [30]: 17.5%
